{"source": "patent US20240066090A1", "about": "“COMPOSITION FOR PREVENTING, AMELIORATING, OR TREATING METABOLIC SYNDROMES INCLUDING OBESITY, DIABETES, HYPERLIPIDEMIA, AND FATTY LIVER” (NUTRACORE CO., LTD., priority 2019, published 2024)", "key": {"[1]": {"test_system": "HFD mice", "test": "Body weight and total body/abdominal fat density (DEXA) in HFD-supplied mice", "type": "in vivo, ICR mice", "details": "test materials 200 mg/kg, metformin 250 mg/kg", "protocol": "Specifically, after acclimating total 200 6-week-old female ICR mice to a laboratory environment for 7 days, they were adapted to HFD (45% Kcal high fat diet) 1 week before the start of administration of the experimental substance, and then the experimental substance was administered, and in the normal control group, a general NFD (Normal pellet diet) was supplied by the same method.\nAs the experimental substance, the LB (lemon balm extract) and CS (corn silk extract) alone and 9 kinds of LB:CS complexes (LB:CS=1:1, 1:2, 1:4, 1:6, 1:8, 2:1, 4:1, 6:1 and 8:1 (g/g)) as described in Table 1 above were used. The administration dose of the experimental substance was equally set to 200 mg/kg in total based on the medicinal efficacy investigation research of the present inventors. The experimental substance was dissolved in sterile distilled water and orally administered.\nIn addition, the total body fat and abdominal fat density were measured using DEXA (live dual-energy x-ray absorptiometry) and the result was shown in FIG. 4."}, "[2]": {"test_system": "HFD mice", "test": "Periovarian and abdominal wall fat pad thickness, adipocyte size and accumulated fat weight in HFD-supplied mice", "type": "in vivo, ICR mice", "details": "test materials 200 mg/kg oral, Metformin 250 mg/kg, mean±SD for 8 mice"}}, "data": [{"smiles": "CN(C)C(=N)N=C(N)N", "note": "[Metformin]", "values": [{"measurement": "Time after the start of administration at which a significant (p<0.01 or p<0.05) decrease of body weight and fat density compared to the HFD control group began", "setting": "[1]", "result": 21, "unit": "days"}, {"measurement": "Body weight and fat density during the 84-day administration period, compared to the HFD control group (groups listed in order of effect)", "setting": "[1]; 84 days", "result": "significant (p<0.01) decrease"}, {"measurement": "Abdominal wall fat pads Adipocyte diameters", "setting": "[2]", "result": "64.49 ± 13.74^ab μm"}, {"measurement": "Abdominal wall fat pads Thickness", "setting": "[2]", "result": "2.99 ± 0.49^fg mm"}, {"measurement": "Periovarian fat pads Adipocyte diameters", "setting": "[2]", "result": "48.12 ± 6.36^fg μm"}, {"measurement": "Periovarian fat pads Thickness", "setting": "[2]", "result": "2.83 ± 0.43^ab mm"}]}]}
